One test has as its system E-selectin. Briefly: ELISA: inhibition of E-selectin-IgG chimera binding to 2,3 sLe^x glycolipid. Also on record: species or system human. An excerpt:
(§1) An ELISA assay is preferably used that employs recombinant fusion proteins composed of extracellular portions of the human selectins joined to human immunoglobulin heavy chain CH3, CH2, and hinge regions. See, for example, Walz et al., Science (1990) 250:1132; Aruffo et al., Cell (1991) 67:35; Aruffo et al., Proc. Natl. Acad. Sci. USA. (1992) 89:2292. The assay is well known in the art, and generally consists of the following three steps:
(§2) I. 2,3 sLe^x glycolipid (25 picomole/well) was transferred into microtiter wells as solutions and then evaporated off. Excess, which remained unattached, was washed off with water. The wells were then blocked with 5% BSA at room temperature for an hour and then washed with PBS containing 1 mM calcium.
(§3) II. Preparation of "multivalent" receptor of the Selectin-lgG chimera was carried out by combining the respective chimera (1 μg/mL) with biotin labelled goat F(ab')2 anti-human IgG (Fc specific) and streptavidin-alkaline phosphatase diluted 1:1000 in 1% BSA-PBS (1 mM calcium) and incubating at 37° C. for 15 min. This allowed the soluble multivalent receptor complex to form. III. Potential inhibitors such as the compounds of formula I or II were allowed to react with the soluble receptor at 37° C. for 45 min. This test assumes that optimal binding, between the soluble phase receptor complex and the inhibitor (non natural ligand), would have occurred within this time frame. This solution was then placed in the microtiter wells that were prepared in step I. The plate was incubated at 37° C. for 45 minutes to allow the soluble receptor to bind to its natural ligand. In the presence of a strong inhibitor only a few receptors should be free to bind to the microtiter plate coated with the natural ligand.
(§4) The positive control is the signal produced by the soluble receptor when it is allowed to react with 2,3 sLe^x glycolipid in the microtiter wells in the absence of any inhibitor. This positive control was considered 100% binding. The signal produced by the receptor that had been previously treated with an inhibitor (recorded as O.D.), was divided by the signal produced by the positive control and multiplied by 100 to calculate the % receptor bound to the well in the presence of the inhibitor. The reciprocal of this number is the % inhibition.
(§5) An ELISA assay was employed that uses recombinant fusion proteins composed of extracellular portions of the human selectins joined to human immunoglobulin heavy chain CH3, CH2, and hinge regions. See, for example, Walz et al., Science (1990) 250:1132; Aruffo et al., Cell (1991) 67:35; Aruffo et al., Proc. Natl. Acad. Sci. USA (1992) 89:2292. The assay is well known in the art, and generally consists of the following three steps:
(§6) II. Preparation of "multivalent" receptor of the Selectin-IgG chimera was carried out by combining the respective chimera 1 μg/ml) with biotin labelled goat F(ab')2 anti-human IgG (Fc specific) and streptavidin-alkaline phosphatase diluted 1:1000 in 1% BSA-PBS (1 mM calcium) and incubating at 37° C. for 15 min. This allowed the soluble multivalent receptor complex to form.
(§7) III. Potential inhibitors such as compounds of formula I or II were allowed to react with the soluble receptor at 37° C. for 45 min. This test assumes that optimal binding, between the soluble phase receptor complex and the inhibitor (non natural ligand), would have occurred within this time frame. This solution was then placed in the microtiter wells that were prepared in step I. The plate was incubated at 37° C. for 45 minutes to allow the soluble receptor to bind to its natural ligand. In the presence of a strong inhibitor only a few receptors should be free to bind to the microtiter plate coated with the natural ligand.
(§8) The positive control is the signal produced by the soluble receptor when it is allowed to react with 2,3 sLe^x glycolipid in the microtiter wells in the absence of any inhibitor. This was considered 100% binding. […]
(In general: ELISA stands for enzyme-linked immunosorbent assay.)

The next test has as its system P-selectin. Briefly: ELISA: inhibition of P-selectin-IgG chimera binding to 2,3 sLe^x glycolipid. Also on record: species or system human. The note with it: inhibition of binding to 2,3 sLex glycolipid.
Excerpt: as §1, §2, §3, §4, §5, §6, §7, §8

The subject of test [1] is neutrophil migration into the peritoneum. Briefly: Murine thioglycollate induced peritonitis: neutrophil migration to the peritoneal cavity. The class given is in vivo, mouse (Swiss Webster). An excerpt: The efficaciousness of 7 and 10 was shown using a murine thioglycollate induced peritonitis model. The assay materials and methods are known in the art, or are generally described by Lewinsohn, D. et al., J. Immun., 138:4313-4321 (1987), or Watson, S. et al., Nature 349:164-166 (1991). This assay measures the ability of the compounds to inhibit neutrophil migration to the peritoneal cavity, the migration being initiated by the presence of thioglycollate in the peritoneal cavity. Thioglycollate is a known and effective inflammatory agent that causes neutrophil migration into the mouse peritoneum when it is administered intraperitoneally. Lewinsohn, D. et al., J. Immun. (1987) 138:4313-4321. Briefly, female Swiss Webster mice weighing about 25 grams were injected in the tail vein with 200 μl of phosphate buffered saline (PBS) with or without the appropriate compound. The pH of the solutions was adjusted to neutrality by the addition of either NaOH or HCL and sterilized by filtration through a 0.2 μ filter. Immediately following injection with the appropriate compound or PBS, the mice were injected intraperitoneally with 1 ml of thioglycollate medium prepared as described by the manufacturer, BBL. Three hours following injection of the thioglycollate solution the mice were sacrificed by CO2 asphyxiation, and the number of cells in the peritoneum removed by lavage with 5 ml of heparinized (5 U/ml) 0.9% sodium chloride solution containing 0.1% bovine serum albumin. Cell number was determined using a Coulter Counter. The cells were prepared for counting by diluting the lavage fluid with 1:50 of a commercial physiological isotonic solution, Isoton II, and the cells lysed by adding S/P Lysing and Hemoglobin Reagent (1:100 final dilution). Cell nuclei were counted in a sized window with lower and upper limits set at 3.9 and 5.7 μm, respectively.

In general, IC50 refers to the concentration at which inhibition is half-maximal. Low readings indicate greater potency, high ones weaker potency. On to `CC(=O)NC1C(O)CC(OCCCCCCOC2OC(C)C(O)C(O)C2O)(C(=O)O)OC1C(O)C(O)CO` [Compound 7, 1-O-α-Neu5Ac-(6-O-α-L-Fucopyranosyl)-Hexane], for which, in the test on E-selectin (FIG. 4, result in words), the “inhibition of E-selectin binding to 2,3 sLe^x glycolipid” value is “inhibit E-selectin binding to 2,3 sLe^x glycolipid”. Besides, the IC50 in the test with E-selectin (inhibition of binding to 2,3 sLex glycolipid) and in the test with P-selectin was over 4 mM in each case. In test [1] (7 compared with 10, FIG. 7), the “inhibited more neutrophil migration than 10” value is listed as “about 30%”. Besides, in test [1] (mice, tail vein injection, 3 h after thioglycollate, FIG. 7(a) and (b)), the “inhibit neutrophil migration into the peritoneum” value is “inhibit neutrophil migration into the peritoneum”.

The values are drawn from US5658880A, “Sialic acid/fucose based medicaments” (Glycomed Incorporated, priority 1994, dated 1997).
